The source of these data is patent US7763648B2, “Oxa-steroids derivatives as selective progesterone receptor modulators” (Janssen Pharmaceutica N.V., priority 2006, dated 2010).

Assay [1] concerns A549 Human lung carcinoma cells. In words: A549 Human Lung Cell Assay (transfected, dexamethasone challenge, Luc-assay). Type of assay: cell-based. The conditions noted are these: Dexamathasone challenge, 24 h. As for the experimental part:
A549 Human Lung Cell Assay
A549 Human lung carcinoma cells were grown in F-12K Nutrient Mixture containing 10% (v/v) fetal bovine serum (FBS; Invitrogen), 2 mM glutamine and 0.15% sodium dicarbonate (Invitrogen).
A549 cells were split 1 to 3 in 175 cm tissue culture flask. The cells were incubated at 37° C. in CO2 incubator until the cells were 95% confluent (typically 24-30 hours).
The following solutions were prepared in sterile tubes: (a) Solution A: 1.5 μg/ml of DNA in 8.5 ml OPTI-MEM I Reduced Serum Medium. (GIBCO cat# 31985) and (b) Solution B: 6 μl/ml of DMRIE-C Reagent into […] OPTI-MEM I. The two solutions were combined and mixed gently, then incubated at room temperature for 40 minutes.
The A549 cells prepared above were washed with […] of OPTI-MEM I. The medium was removed and 17 ml of the lipid-DNA complex solution was overlayed onto cells. The cells ere then incubated for 16 h at 37° C. in CO2 incubator. The DNA-containing medium was removed and 30 ml of growth medium was added. (5% Charcoal treated FBS) After 5-6 h, the cells were seeded in a 96 well plate and the cells incubated overnight at 37° C. in CO2 incubator.
To each well was then added 5 μl of test compounds and the cells incubated at 37° C. for 10 min. 5 μL of Dexamathasone (CAS [50-02-2]), was then added to each well for challenger and the cells incubated at 37° C. in CO2 incubator for 24 h. 100 μl of Luc-assay buffer was then added into each cell well and the cells incubated for 30 min at room temperature. A 150 μL sample from each well was then transferred into a DYNEX Microlitel plate and read on Top-counter.

Assay [2] has as its system T47D human breast cancer cells. In words: T47D Human Breast Cancer Cells Assay (alkaline phosphatase). Type of assay: cell-based. The conditions noted are these: 24 h with test compound, luminescence. The method, then: T47D Human Breast Cancer Cells Assay
T47D human breast cancer cells were grown in RPMI medium without phenol red (Invitrogen) containing 10% (v/v) heat-inactivated fetal bovine serum (FBS; Hyclone), 1% (v/v) penicillin-streptomycin (Invitrogen), 1% (w/v) glutamine (Invitrogen), and […] insulin (Sigma). Incubation conditions were 37° C. in a humidified 5% (v/v) carbon dioxide environment.
The cells were plated in 96-well tissue culture plates at 10,000 cells per well in assay medium [RPMI medium without phenol red (Invitrogen) containing 5% (v/v) charcoal-treated FBS (Hyclone) and 1% (v/v) penicillin-streptomycin (Invitrogen)]. Two days later, the medium was decanted and test compound or control were added at a final concentration of 0.1% (v/v) dimethyl sulfoxide in fresh assay medium. Twenty-four hours later, an alkaline phosphatase assay was performed using a SEAP kit (BD Biosciences Clontech, Palo Alto, Calif.). Briefly, the medium was decanted and the cells were fixed for 30 minutes at room temperature with 5% (v/v) formalin (Sigma). The cells were washed once with room temperature Hank's buffered saline solution (Invitrogen). Equal volumes (0.05 mL) of 1× Dilution Buffer, Assay Buffer and 1:20 substrate/enhancer mixture were then added. After 1 hour incubation at room temperature in the dark, the lysate was transferred to a white 96-well plate (Dynex) and luminescence was read using a LuminoSkan Ascent (Thermo Electron, Woburn, Mass.).

One may read the IC50 as the concentration that gives 50% inhibition. Take `CN(C)c1ccc([C@H]2C[C@@]3(C)[C@@H](CC[C@@]3(O)C#Cc3ccccc3C(F)(F)F)[C@@H]3OCC4=CC(=O)CCC4=C32)cc1` [Compound 22, 11-(4-Dimethylamino-phenyl)-17-hydroxy-13-methyl-17-(2-trifluoromethyl-phenylethynyl)-1,2,8,11,12,13,14,15,16,17-decahydro-6H-7-oxa-cyclopenta[a]phenanthren-3-one]: the values for the IC50 in assay [1] and in assay [2] were 51 nM and 3.15 nM, respectively.
On the same counts, the results for `CN(C)c1ccc([C@H]2C[C@@]3(C)[C@@H](CC[C@@]3(O)C#Cc3cccc(C(F)(F)F)c3)[C@@H]3OCC4=CC(=O)CCC4=C32)cc1` [Compound 23, 11-(4-Dimethylamino-phenyl)-17-hydroxy-13-methyl-17-(3-trifluoromethyl-phenylethynyl)-1,2,8,11,12,13,14,15,16,17-decahydro-6H-7-oxa-cyclopenta[a]phenanthren-3-one] are 45.4 nM and 2.65 nM.
Turning to `Cc1ccccc1C#C[C@]1(O)CC[C@H]2[C@@H]3OCC4=CC(=O)CCC4=C3[C@@H](c3ccc(N(C)C)cc3)C[C@@]21C` [Compound 24, 11-(4-Dimethylamino-phenyl)-17-hydroxy-13-methyl-17-o-tolylethynyl-1,2,8,11,12,13,14,15,16,17-decahydro-6H-7-oxa-cyclopenta[a]phenanthren-3-one], the IC50 in assay [1] came out at 113 nM; in assay [2], 5.8 nM.
On the same counts, the results for `Cc1cccc(C#C[C@]2(O)CC[C@H]3[C@@H]4OCC5=CC(=O)CCC5=C4[C@@H](c4ccc(N(C)C)cc4)C[C@@]32C)c1` [Compound 25, 11-(4-Dimethylamino-phenyl)-17-hydroxy-13-methyl-7-m-tolylethynyl-1,2,8,11,12,13,14,15,16,17-decahydro-6H-7-oxa-cyclopenta[a]phenanthren-3-one] are 36.3 nM and 2.85 nM.
On the same counts, the results for `CN(C)c1ccc([C@H]2C[C@@]3(C)[C@@H](CC[C@@]3(O)C#Cc3ccsc3)[C@@H]3OCC4=CC(=O)CCC4=C32)cc1` [Compound 29, 11-(4-Dimethylamino-phenyl)-17-hydroxy-13-methyl-17-thiophen-3-ylethynyl-1,2,8,11,12,13,14,15,16,17-decahydro-6H-7-oxa-cyclopenta[a]phenanthren-3-one] are 56 nM and 1.55 nM.
On the same counts, the results for `CN(C)CC#C[C@]1(O)CC[C@H]2[C@@H]3OCC4=CC(=O)CCC4=C3C(c3ccc(N(C)C)cc3)C[C@@]21C` (stereo partly drawn) [Compound 31] are more than 3000 nM and more than 1000 nM.
